In patent US12280047B2, “Treatment of aneurysms” (Georgia State Research Foundation, Inc., priority 2017, dated 2025):

Test system: ApoE−/− mice
Experiment: Acipimox preventing AngII-induced AAA in aged mice (Example 16)
Format: in vivo
Conditions: AngII 1,000 ng/kg/min four weeks
Procedure: To compare the effect of acipimox on treating AngII-induced abdominal aortic aneurysm in young (3 months old) or old (24 months old) mice, male ApoE^−/− mice in the aged mice group were treated with acipimox (0.1% wt) or vehicle control (water) by drinking water for 6 weeks. Four weeks later, mice in both age groups were infused with AngII (1,000 ng/kg/min) or saline (0.9% sodium chloride) by Alzet osmotic pumps for four weeks. AAA incidence and maximal abdominal aorta diameter were examined to evaluate the therapeutic effect of acipimox on AngII-induced AAA in old mice.
To quantify AAA incidence and size, the maximum width of abdominal aorta was measured with Image Pro Plus software (Media Cybernetics). Aneurysm incidence was quantified based on a definition of aneurysm as an external width of the suprarenal aorta that was increased by 50% or greater compared with aortas from saline-infused mice. The average diameter of the normal suprarenal aorta in control mice is 0.705 mm. Therefore, a threshold of 1.06 mm as evidence of aneurysm formation was set. […] After 4-weeks of AngII-infusion, mice where divided into two groups vehicle treated (n=10) or acipimox treated (n=15). Before treatment, the AAA incidence was 20% and 70% in young and old mice, respectively. After six weeks of treatment acipimox, AAA incidence decreased to 25% in the old mice group. […]

## Angiotensin II (DRVYIHPF; Angiotensin-2; UniProt P01019 25-32, looked up) [AngII, Angiotensin II (Sigma, A9525) infused to induce AAA in mice]
Old (24 months old) ApoE−/− mice
  AAA incidence: 70%
Young (3 months old) ApoE−/− mice
  AAA incidence: 20%
